Test results from ChEMBL document CHEMBL4017462, “Antiplasmodial β-triketones from the flowers of the Australian tree Angophora woodsiana” (Bioorg Med Chem Lett, 2017).

Assays:
Plasmodium falciparum [1] = assay: Antiplasmodial activity against chloroquine-sensitive Plasmodium falciparum 3D7 measured after 72 hrs by DAPI staining based high throughput screening assay; format: functional; conditions: 3D7, 72 h
[2] = Selectivity index, ratio of IC50 for HEK293 cells to IC50 for chloroquine-resistant Plasmodium falciparum Dd2; format: toxicity; conditions: human; read-out: Ratio IC50
Plasmodium falciparum [3] = assay: Antiplasmodial activity against chloroquine-resistant Plasmodium falciparum Dd2 measured after 72 hrs by DAPI staining based high throughput screening assay; format: functional; conditions: Dd2, 72 h
HEK293 = assay: Growth inhibition of HEK293 cells; format: cell-based; conditions: Homo sapiens
Plasmodium falciparum [4] = assay: Antiplasmodial activity against chloroquine-sensitive Plasmodium falciparum 3D7; format: functional
Plasmodium falciparum [5] = assay: Antiplasmodial activity against chloroquine-resistant Plasmodium falciparum Dd2; format: functional
[6] = Growth inhibition of HEK293 cells at 120 uM relative to control; format: cell-based; conditions: human, read-out: GI
[7] = Growth inhibition of HEK293 cells at 100 uM relative to control; format: cell-based; conditions: human, read-out: GI
[8] = Growth inhibition of HEK293 cells at 20 uM relative to control; format: cell-based; conditions: human, read-out: GI
Plasmodium falciparum [9] = assay: Antiplasmodial activity against chloroquine-resistant Plasmodium falciparum Dd2 at 40 uM measured after 72 hrs by DAPI staining based high throughput screening assay relative to control; format: functional
[10] = Growth inhibition of HEK293 cells at 40 uM relative to control; format: cell-based; conditions: human, read-out: GI

## CC(C)C[C@H]1C[C@@]2(CC[C@H]3C[C@@H]2C3(C)C)OC2=C1C(=O)C(C)(C)C(=O)C2(C)C
Plasmodium falciparum [1]
  IC50: 6700 nM

## CC(C)C[C@@H]1OC12C(=O)C(C)(C)C(=O)C(C)(C)C2=O
[2]
  selectivity ratio: < 10
Plasmodium falciparum [1]
  IC50: 3000 nM
Plasmodium falciparum [3]
  IC50: 2530 nM
HEK293
  IC50: 15900 nM

## C=C1CC[C@H]2[C@H](CC(C)C)C3=C(O[C@]2(C)CC[C@@H]2[C@@H]1CC2(C)C)C(C)(C)C(=O)C(C)(C)C3=O
Plasmodium falciparum [1]
  IC50: 11300 nM

## CC(C)CC(=O)c1c(O)c2c(c3c1O[C@]1(C(C)C)OC4=C(C(=O)C(C)(C)C(=O)C4(C)C)[C@H]31)OC1=C(C(=O)C(C)(C)C(=O)C1(C)C)[C@@H]2CC(C)C
Plasmodium falciparum [4]
  IC50: 1000 nM
Plasmodium falciparum [5]
  IC50: 1490 nM

## Cc1c2c(c(O)c3c1OC1=C(C(=O)C(C)(C)C(=O)C1(C)C)[C@@H]3CC(C)C)C(=O)C[C@@H](c1ccccc1)O2
Plasmodium falciparum [1]
  IC50: 10700 nM

## CC(C)[C@]12OC3=C(C(=O)C(C)(C)C(=O)C3(C)C)[C@H]1C1=C(O2)C(C)(C)C(=O)C(C)(C)C1=O
Plasmodium falciparum [1]
  IC50: 14000 nM

## Cc1c(O)c(C(=O)CCc2ccccc2)c2c(c1O)[C@@H]1C3=C(O[C@]1(C(C)C)O2)C(C)(C)C(=O)C(C)(C)C3=O
[6]
  inhibition at 120 µM: 85%
Plasmodium falciparum [1]
  IC50: 1070 nM
Plasmodium falciparum [4]
  IC50: 290 nM
Plasmodium falciparum [5]
  IC50: 440 nM

## C=C1CC[C@H]2[C@@H](CC(C)C)C3=C(O[C@]2(C)CC[C@@H]2[C@@H]1CC2(C)C)C(C)(C)C(=O)C(C)(C)C3=O
Plasmodium falciparum [1]
  IC50: 8900 nM

## CC(C)C[C@H]1C2=C(O[C@@]3(C)C=C4[C@@H](C[C@@H]13)[C@@H](C)CC[C@@H]4C(C)C)C(C)(C)C(=O)C(C)(C)C2=O
[7]
  inhibition at 100 µM: 68%
Plasmodium falciparum [1]
  IC50: 26900 nM

## CC(C)CC(=O)c1c(O)cc(O)c2c1O[C@@]1(C(C)C)OC3=C(C(=O)C(C)(C)C(=O)C3(C)C)[C@@H]21
[7]
  inhibition at 100 µM: 59%
Plasmodium falciparum [1]
  IC50: 10500 nM

## CC(C)CC(C1=C(O)C(C)(C)C(=O)C(C)(C)C1=O)C1=C(O)C(C)(C)C(=O)C(C)(C)C1=O
[6]
  inhibition at 120 µM: 42%
Plasmodium falciparum [1]
  IC50: 440 nM
Plasmodium falciparum [4]
  IC50: 5300 nM
Plasmodium falciparum [5]
  IC50: 8800 nM

## CC(C)CC(=O)c1c(O)cc2c(c1O)[C@@H](CC(C)C)C1=C(O2)C(C)(C)C(=O)C(C)(C)C1=O
[2]
  selectivity ratio: < 10
Plasmodium falciparum [1]
  IC50: 1800 nM
Plasmodium falciparum [3]
  IC50: 4000 nM
HEK293
  IC50: 11400 nM

## C[C@H]1[C@H](OC(=O)CCC(=O)O)O[C@@H]2O[C@@]3(C)CC[C@H]4[C@H](C)CC[C@@H]1[C@@]24OO3 [ARTESUNATE]
Plasmodium falciparum [1]
  IC50: 1 nM
[8]
  inhibition at 20 µM: 94%

## COc1ccc(C[C@H](N)C(=O)N[C@H]2[C@@H](O)[C@H](n3cnc4c(N(C)C)ncnc43)O[C@@H]2CO)cc1 [PUROMYCIN]
Plasmodium falciparum [3]
  IC50: 61 nM
HEK293
  IC50: 399 nM

## CCc1nc(N)nc(N)c1-c1ccc(Cl)cc1 [PYRIMETHAMINE]
Plasmodium falciparum [1]
  IC50: 8 nM
Plasmodium falciparum [9]
  Activity: 62%
[10]
  inhibition at 40 µM: 62%

## COc1ccc2nc3cc(Cl)ccc3c(Nc3cc(CN4CCCC4)c(O)c(CN4CCCC4)c3)c2n1 [PYRONARIDINE]
Plasmodium falciparum [1]
  IC50: 11.9 nM
Plasmodium falciparum [3]
  IC50: 18 nM
HEK293
  IC50: 5220 nM
